Test results from the supplement of paper PMC8612539.
Values after ≈ are worked out from the molar mass of the structure shown.

Test system: Histophilus somni
Experiment: minimum inhibitory concentration (MIC)
Experimental: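 Broth microdilution MIC (Sensititre BOPO7F bovine plate, CLSI methods) of 19 antimicrobials against field isolates of P. multocida, M. haemolytica, H. somni (deep nasopharyngeal swabs) and E. coli, Enterococcus spp. (rectal swabs) from weaned dairy heifers. Incubation 16-24 h at 35 C. MIC is the lowest concentration preventing visible growth. Values with <= or > lie at the tested range limits. Trimethoprim-sulfamethoxazole is given as the trimethoprim component of a 1:19 mixture.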

CN[C@@H]1[C@H](O)[C@H](NC)[C@H]2O[C@@]3(O)C(=O)C[C@@H](C)O[C@H]3O[C@@H]2[C@H]1O [Spectinomycin]
Conditions	minimum inhibitory concentration [µg/mL]
isolate (source animal id): 3	> 64
isolate (source animal id): 4	> 64
isolate (source animal id): 7	≤ 8
isolate (source animal id): 14	16 (≈ 48.1 µM)
isolate (source animal id): 15	> 64
isolate (source animal id): 17	≤ 8
isolate (source animal id): 18	> 64
isolate (source animal id): 20	16 (≈ 48.1 µM)
isolate (source animal id): 23	16 (≈ 48.1 µM)
isolate (source animal id): 45	16 (≈ 48.1 µM)
isolate (source animal id): 53	≤ 8
isolate (source animal id): 83	≤ 8
isolate (source animal id): 88	> 64
isolate (source animal id): 92	32 (≈ 96.3 µM)
isolate (source animal id): 93	64 (≈ 193 µM)
isolate (source animal id): 99	16 (≈ 48.1 µM)
isolate (source animal id): 100	16 (≈ 48.1 µM)
isolate (source animal id): 105	16 (≈ 48.1 µM)
isolate (source animal id): 107	16 (≈ 48.1 µM)
isolate (source animal id): 108	16 (≈ 48.1 µM)
isolate (source animal id): 109	16 (≈ 48.1 µM)
isolate (source animal id): 110	32 (≈ 96.3 µM)
isolate (source animal id): 117	> 64
isolate (source animal id): 121	> 64
isolate (source animal id): 123	> 64
isolate (source animal id): 124	> 64
isolate (source animal id): 127	> 64
isolate (source animal id): 128	> 64
isolate (source animal id): 130	> 64
isolate (source animal id): 132	> 64
isolate (source animal id): 135	≤ 8
isolate (source animal id): 140	> 64
isolate (source animal id): 141	16 (≈ 48.1 µM)
isolate (source animal id): 142	32 (≈ 96.3 µM)
isolate (source animal id): 144	> 64
isolate (source animal id): 146	64 (≈ 193 µM)
isolate (source animal id): 147	16 (≈ 48.1 µM)
isolate (source animal id): 151	> 64
isolate (source animal id): 153	> 64
isolate (source animal id): 154	16 (≈ 48.1 µM)
isolate (source animal id): 156	16 (≈ 48.1 µM)
isolate (source animal id): 157	> 64
isolate (source animal id): 176	> 64
isolate (source animal id): 183	> 64
isolate (source animal id): 186	> 64
isolate (source animal id): 196	> 64
isolate (source animal id): 198	> 64
isolate (source animal id): 200	> 64
isolate (source animal id): 206	> 64
isolate (source animal id): 208	> 64
isolate (source animal id): 210	> 64
isolate (source animal id): 212	> 64
isolate (source animal id): 215	> 64
isolate (source animal id): 216	> 64
isolate (source animal id): 218	> 64
isolate (source animal id): 219	> 64
isolate (source animal id): 224	> 64
isolate (source animal id): 228	> 64
isolate (source animal id): 230	> 64
isolate (source animal id): 233	64 (≈ 193 µM)
isolate (source animal id): 238	> 64
isolate (source animal id): 239	> 64
isolate (source animal id): 241	> 64
isolate (source animal id): 242	> 64
isolate (source animal id): 243	> 64
isolate (source animal id): 245	≤ 8
isolate (source animal id): 246	> 64
isolate (source animal id): 247	> 64
isolate (source animal id): 248	≤ 8
isolate (source animal id): 250	> 64
isolate (source animal id): 251	> 64
isolate (source animal id): 252	64 (≈ 193 µM)
isolate (source animal id): 254	> 64
isolate (source animal id): 258	> 64
isolate (source animal id): 259	> 64
isolate (source animal id): 262	> 64
isolate (source animal id): 264	32 (≈ 96.3 µM)
isolate (source animal id): 265	16 (≈ 48.1 µM)
isolate (source animal id): 266	> 64
isolate (source animal id): 267	> 64
isolate (source animal id): 269	> 64
isolate (source animal id): 271	> 64
isolate (source animal id): 272	16 (≈ 48.1 µM)
isolate (source animal id): 274	> 64
isolate (source animal id): 276	≤ 8
isolate (source animal id): 278	> 64
isolate (source animal id): 280	16 (≈ 48.1 µM)
isolate (source animal id): 281	> 64
isolate (source animal id): 283	> 64
isolate (source animal id): 288	> 64
isolate (source animal id): 291	> 64
isolate (source animal id): 292	> 64
isolate (source animal id): 296	> 64
isolate (source animal id): 306	> 64
isolate (source animal id): 336	> 64
isolate (source animal id): 337	> 64
isolate (source animal id): 341	> 64
